Assay results as given in US9655884B2, “Antiparasitic use of isoxazoline compounds” (Intervet Inc., priority 2013, dated 2017).

Tests used:
[1] = Adverse events in treated dogs following administration; assay type: in vivo; conditions: chewable tablet (Bravecto), close to 25 mg/kg body weight oral
Experimental: Twenty healthy male and female mixed-breed dogs ≧12 weeks old were housed in individual pens. Ten dogs per group were randomly assigned to receive either a fluralaner chewable tablet (Bravecto™) or no treatment. Each pen contained the bottom half of a dog carrier lined with carpet as bedding. Before treatment, each dog was infested twice (28 and 21 days pretreatment) with 100 adult, unfed C. felis to establish a flea population prior to treatment on each dog. Flea media was added to the carpet 4 weeks before the treatment date and weekly thereafter for the remainder of the study to encourage development of an active, developing population of juvenile flea stages in each pen. On the treatment day, dogs in the treated group received fluralaner at a dose close to 25 mg/kg body weight by oral administration. The chewable tablet(s) were administered by placement in the back of the oral cavity over the tongue to initiate swallowing. Dogs in the negative control group remained untreated.

C. felis = test: In vivo study in dogs to assess flea control efficacy in a simulated home environment; conditions: 25 mg/kg oral; for Mean flea numbers (arithmetic), Treated group / Mean flea numbers (geometric), Treated group: 25 mg/kg
Experimental: Twenty healthy male and female mixed-breed dogs ≧12 weeks old were housed in individual pens. Ten dogs per group were randomly assigned to receive either a fluralaner chewable tablet (Bravecto™) or no treatment. Each pen contained the bottom half of a dog carrier lined with carpet as bedding. Before treatment, each dog was infested twice (28 and 21 days pretreatment) with 100 adult, unfed C. felis to establish a flea population prior to treatment on each dog. Flea media was added to the carpet 4 weeks before the treatment date and weekly thereafter for the remainder of the study to encourage development of an active, developing population of juvenile flea stages in each pen. On the treatment day, dogs in the treated group received fluralaner at a dose close to 25 mg/kg body weight by oral administration. The chewable tablet(s) were administered by placement in the back of the oral cavity over the tongue to initiate swallowing. Dogs in the negative control group remained untreated. Flea counts were performed on all dogs 1 day before treatment, 1 day after treatment and then every 7 days until completion of the study 84 days later. All live fleas recovered were held and re-infested on the dog after the comb count was completed. Each dog was also infested with 50 newly emerged unfed adult fleas on days 22, 50 and 78 to simulate natural infestation post-treatment. The individual dog was the experimental unit and data from each flea count time point were analyzed separately. Flea count data were transformed [Y=loge(x+1)] and analyzed by a mixed linear model including treatment as the fixed effect and block as the random effect. Kenward-Rogers adjustment was used to determine the denominator degree of freedom. A two-tailed test was used within the mixed linear model for the comparison between treatment groups and statistical significance was declared when P≦0.05. SAS version 9.3 was the primary software used for analysis. Efficacy was calculated using arithmetic and geometric means with Abbott's formula: Efficacy (%)=100×(MC−MT)/MC, where MC was the arithmetic or geometric mean number of total adult live fleas on untreated dogs and MT the arithmetic or geometric mean number of total adult live fleas on treated dogs.

[2] = day 1 post treatment, listed as fluranaler
[3] = day 7 post treatment, listed as fluranaler
[4] = day 14 post treatment, listed as fluranaler
[5] = day 21 post treatment, listed as fluranaler
[6] = day 28 post treatment, listed as fluranaler
[7] = day 35 post treatment, listed as fluranaler
[8] = day 42 post treatment, listed as fluranaler
[9] = day 49 post treatment, listed as fluranaler
[10] = day 56 post treatment, listed as fluranaler
[11] = day 63 post treatment, listed as fluranaler
[12] = day 70 post treatment, listed as fluranaler
[13] = day 77 post treatment, listed as fluranaler
[14] = day 84 post treatment, listed as fluranaler

Cc1cc(C2=NOC(c3cc(Cl)cc(Cl)c3)(C(F)(F)F)C2)ccc1C(=O)NCC(=O)NCC(F)(F)F (centres unmarked) [fluralaner, 4-[5-(3,5-Dichlorophenyl)-5-trifluoromethyl-4,5-dihydroisoxazol-3-yl]-2-methyl-N-[(2,2,2-trifluoro-ethylcarbamoyl)-methyl]-benzamide]
99.8%: Efficacy (from arithmetic mean flea counts) (C. felis; day 49 post treatment)
~100%: Flea-control efficacy (C. felis; all post-treatment time points (12-week post-treatment period))
No adverse events were observed: Adverse events [1]
99.7%: Efficacy (from geometric mean flea counts) (C. felis; day 49 post treatment) | Efficacy (from arithmetic mean flea counts) (C. felis; day 70 post treatment)
0.1: Mean flea numbers (arithmetic), Treated group (C. felis; day 49 post treatment) | Mean flea numbers (geometric), Treated group (C. felis; day 49 post treatment) | Mean flea numbers (arithmetic), Treated group (C. felis; day 56 post treatment) | Mean flea numbers (geometric), Treated group (C. felis; day 56 post treatment) | Mean flea numbers (arithmetic), Treated group (C. felis; day 70 post treatment) | Mean flea numbers (geometric), Treated group (C. felis; day 70 post treatment)
0/0: Mean flea numbers (arithmetic), Treated group (C. felis; [2]) | Mean flea numbers (geometric), Treated group (C. felis; [2]) | Mean flea numbers (arithmetic), Treated group (C. felis; [3]) | Mean flea numbers (geometric), Treated group (C. felis; [3]) | Mean flea numbers (arithmetic), Treated group (C. felis; [4]) | Mean flea numbers (geometric), Treated group (C. felis; [4]) | Mean flea numbers (arithmetic), Treated group (C. felis; [5]) | Mean flea numbers (geometric), Treated group (C. felis; [5]) | Mean flea numbers (arithmetic), Treated group (C. felis; [6]) | Mean flea numbers (geometric), Treated group (C. felis; [6]) | Mean flea numbers (arithmetic), Treated group (C. felis; [7]) | Mean flea numbers (geometric), Treated group (C. felis; [7]) | Mean flea numbers (arithmetic), Treated group (C. felis; [8]) | Mean flea numbers (geometric), Treated group (C. felis; [8]) | Mean flea numbers (arithmetic), Treated group (C. felis; [11]) | Mean flea numbers (geometric), Treated group (C. felis; [11]) | Mean flea numbers (arithmetic), Treated group (C. felis; [13]) | Mean flea numbers (geometric), Treated group (C. felis; [13]) | Mean flea numbers (arithmetic), Treated group (C. felis; [14]) | Mean flea numbers (geometric), Treated group (C. felis; [14])
0.1/0.1: Mean flea numbers (arithmetic), Treated group (C. felis; [9]) | Mean flea numbers (geometric), Treated group (C. felis; [9]) | Mean flea numbers (arithmetic), Treated group (C. felis; [10]) | Mean flea numbers (geometric), Treated group (C. felis; [10]) | Mean flea numbers (arithmetic), Treated group (C. felis; [12]) | Mean flea numbers (geometric), Treated group (C. felis; [12])
0: Mean flea numbers (arithmetic), Treated group (C. felis; day 1 post treatment) | Mean flea numbers (geometric), Treated group (C. felis; day 1 post treatment) | Mean flea numbers (arithmetic), Treated group (C. felis; day 7 post treatment) | Mean flea numbers (geometric), Treated group (C. felis; day 7 post treatment) | Mean flea numbers (arithmetic), Treated group (C. felis; day 14 post treatment) | Mean flea numbers (geometric), Treated group (C. felis; day 14 post treatment) | Mean flea numbers (arithmetic), Treated group (C. felis; day 21 post treatment) | Mean flea numbers (geometric), Treated group (C. felis; day 21 post treatment) | Mean flea numbers (arithmetic), Treated group (C. felis; day 28 post treatment) | Mean flea numbers (geometric), Treated group (C. felis; day 28 post treatment) | Mean flea numbers (arithmetic), Treated group (C. felis; day 35 post treatment) | Mean flea numbers (geometric), Treated group (C. felis; day 35 post treatment) | Mean flea numbers (arithmetic), Treated group (C. felis; day 42 post treatment) | Mean flea numbers (geometric), Treated group (C. felis; day 42 post treatment) | Mean flea numbers (arithmetic), Treated group (C. felis; day 63 post treatment) | Mean flea numbers (geometric), Treated group (C. felis; day 63 post treatment) | Mean flea numbers (arithmetic), Treated group (C. felis; day 77 post treatment) | Mean flea numbers (geometric), Treated group (C. felis; day 77 post treatment) | Mean flea numbers (arithmetic), Treated group (C. felis; day 84 post treatment) | Mean flea numbers (geometric), Treated group (C. felis; day 84 post treatment)
99.8/99.8%: Efficacy (from arithmetic mean flea counts) (C. felis; day 56 post treatment) | Efficacy (from geometric mean flea counts) (C. felis; day 56 post treatment)
99.6%: Efficacy (from geometric mean flea counts) (C. felis; day 70 post treatment)
100/100%: Efficacy (from arithmetic mean flea counts) (C. felis; day 1 post treatment) | Efficacy (from geometric mean flea counts) (C. felis; day 1 post treatment) | Efficacy (from arithmetic mean flea counts) (C. felis; day 7 post treatment) | Efficacy (from geometric mean flea counts) (C. felis; day 7 post treatment) | Efficacy (from arithmetic mean flea counts) (C. felis; day 14 post treatment) | Efficacy (from geometric mean flea counts) (C. felis; day 14 post treatment) | Efficacy (from arithmetic mean flea counts) (C. felis; day 21 post treatment) | Efficacy (from geometric mean flea counts) (C. felis; day 21 post treatment) | Efficacy (from arithmetic mean flea counts) (C. felis; day 28 post treatment) | Efficacy (from geometric mean flea counts) (C. felis; day 28 post treatment) | Efficacy (from arithmetic mean flea counts) (C. felis; day 35 post treatment) | Efficacy (from geometric mean flea counts) (C. felis; day 35 post treatment) | Efficacy (from arithmetic mean flea counts) (C. felis; day 42 post treatment) | Efficacy (from geometric mean flea counts) (C. felis; day 42 post treatment) | Efficacy (from arithmetic mean flea counts) (C. felis; day 63 post treatment) | Efficacy (from geometric mean flea counts) (C. felis; day 63 post treatment) | Efficacy (from arithmetic mean flea counts) (C. felis; day 77 post treatment) | Efficacy (from geometric mean flea counts) (C. felis; day 77 post treatment) | Efficacy (from arithmetic mean flea counts) (C. felis; day 84 post treatment) | Efficacy (from geometric mean flea counts) (C. felis; day 84 post treatment)
